Data: ChEMBL document CHEMBL1141328, “Biologically active aspidofractinine, rhazinilam, akuammiline, and vincorine alkaloids from Kopsia” (J Nat Prod, 2007)

What was measured:
Assay type in all cases: functional, cell-based
[1] = Cytotoxicity against vincristine-resistant human KB/VJ300 cells in presence of 0.121 uM vincristine
[2] = Cytotoxicity against vincristine-resistant human KB/VJ300 cells
KB [3] = assay: Cytotoxicity against vincristine-resistant human KB cells
[4] = Cytotoxicity against human KB/VJ300 cells
KB [5] = assay: Cytotoxicity against human KB cells

Structure (SMILES) | IC50 [1] | IC50 [2] | IC50 (KB [3]) | IC50 [4] [µM] | IC50 (KB [5]) [µM]
COC(=O)[C@H]1C[C@@]23CCCN4CC[C@@]5(c6ccccc6N[C@]15CC2)[C@@H]43 | > 25 µg/mL | > 25 µg/mL | > 25 µg/mL |  | 
C/C=C1/CN2CC[C@]34C(=Nc5ccccc53)[C@@H]2C[C@H]1C4(C(=O)OC)C(=O)OC(C)=O (stereo partly specified) | > 25 µg/mL | > 25 µg/mL | > 25 µg/mL |  | 
C/C=C1/CN(C=O)[C@H]2C[C@H]1C(C(=O)OC)[C@@]13CCO[C@@]21Nc1ccccc13 (stereo partly specified) [ASPIDOPHYLLINE A] | 29.1 µM | > 25 µg/mL | > 25 µg/mL |  | 
COC(=O)N1c2ccccc2[C@@]23CCN4CC=C[C@]5(CC[C@]12C(O)(C(=O)OC)C5O)[C@H]43 (stereo partly specified) [KOPSILOSCINE A] | 8.9 µM | 42.3 µM | 45.8 µM |  | 
COC(=O)N1c2ccccc2[C@@]23CCN4CCC[C@]5(CC[C@]12[C@](O)(C(=O)OC)[C@H]5O)[C@H]43 [KOPSILOSCINE B] | 11.7 µM | > 25 µg/mL | > 25 µg/mL |  | 
COC(=O)N1c2ccccc2[C@@]23CCN4CC[C@H](O)[C@@]5(CC[C@]12[C@](O)(C(=O)OC)[C@H]5O)[C@H]43 [KOPSILOSCINE C] | > 25 µg/mL | > 25 µg/mL | > 25 µg/mL |  | 
COC(=O)N1c2ccc(OC)cc2[C@@]23CCN4CCC[C@]5(CC[C@]12[C@](O)(C(=O)OC)[C@H]5O)[C@H]43 [KOPSILOSCINE D] | 25.1 µM | > 25 µg/mL | > 25 µg/mL |  | 
COC(=O)N1c2ccc(OC)cc2[C@@]23CCN4CC[C@H](O)[C@@]5(CC[C@]12[C@](O)(C(=O)OC)[C@H]5O)[C@H]43 [KOPSILOSCINE E] | > 25 µg/mL | > 25 µg/mL | > 25 µg/mL |  | 
COC(=O)N1c2c(OC)cccc2[C@@]23CCN4CC[C@H](O)[C@@]5(CC[C@]12[C@](O)(C(=O)OC)[C@H]5O)[C@H]43 [KOPSILOSCINE F] | > 25 µg/mL | > 25 µg/mL | > 25 µg/mL |  | 
CC[C@]12CCCn3c(C=O)cc(c31)-c1ccccc1NC(=O)CC2 [RHAZINAL] | 0.93 µM | 0.76 µM | 0.73 µM |  | 
CC[C@@]12CCC(=O)Nc3ccccc3-c3ccn(c31)C(=O)CC2 [RHAZINICINE] | 6.01 µM | 8.12 µM | 4.06 µM |  | 
CC[C@]12CCCn3ccc(c31)-c1ccccc1NC(=O)CC2 [RHAZINILAM] | 1.16 µM | 0.83 µM | 0.65 µM |  | 
C/C=C1/CN2CC[C@@]34c5ccccc5C[C@@]23CC[C@H]1C4(CO)C(=O)OC (stereo partly specified) [VINCOPHYLLINE] | > 25 µg/mL | > 25 µg/mL | > 25 µg/mL |  | 
CC[C@]1(O)C[C@H]2CN(CCc3c([nH]c4ccccc34)[C@@](C(=O)OC)(c3cc4c(cc3OC)N(C=O)[C@H]3[C@@](O)(C(=O)OC)[C@H](OC(C)=O)[C@]5(CC)C=CCN6CC[C@]43[C@@H]65)C2)C1 [VINCRISTINE] |  |  |  | 1.2 | 0.0028
